{"source": "patent US20110104055A1", "about": "“SUBSTITUTED N-ARYL BENZAMIDES AND RELATED COMPOUNDS FOR TREATMENT OF AMYLOID DISEASES AND SYNUCLEINOPATHIES” (priority 2002, published 2011)", "molecular_target": "T1, Aβ 1-42 fibrils (Homo sapiens, UniProt P05067)", "T1 construct": "purchased Bachem Inc", "T1 sequence (P05067 672-713)": "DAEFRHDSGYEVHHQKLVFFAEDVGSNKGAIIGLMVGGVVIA", "assay": "Congo red binding assay, Aβ 1-42 fibrils (Example 6)", "assay_type": "biochemical", "details": "3-day incubation", "description": "In the Congo red binding assay the ability of a given test compound to alter amyloid (Aβ 1-42 fibrils, IAPP fibrils or NAC fibrils) binding to Congo red was quantified. In this assay, Aβ 1-42 fibrils, IAPP fibril or NAC fibrils and test compounds were incubated for 3 days and then vacuum filtered through a 0.2 μm filter. The amount of Aβ 1-42 fibrils, IAPP fibrils or NAC fibrils retained in the filter was then quantitated following staining of the filter with Congo red. After appropriate washing of the filter, any lowering of the Congo red color on the filter in the presence of the test compound (compared to the Congo red staining of the amyloid protein in the absence of the test compound) was indicative of the test compound's ability to diminish/alter the amount of aggregated and congophilic Aβ 1-42 fibrils, IAPP fibrils or NAC fibrils.\nIn the Congo red binding assay the ability of a test compound to alter amyloid (in this case, Aβ) binding to Congo red is quantified. In this assay, Aβ 1-42 and test compounds were incubated for 3 days and then vacuum filtered through a 0.2 μm filter. The amount of Aβ 1-42 retained in the filter was then quantified following staining of the filter with Congo red. After appropriate washing of the filter, any lowering of the Congo red color on the filter in the presence of the test compound (compared to the Congo red staining of the amyloid protein in the absence of the test compound) was indicative of the test compound's ability to diminish/alter the amount of aggregated and congophilic Aβ.\nIn one study, the ability of Aβ fibrils to bind Congo red in the absence or presence of increasing amounts of the compounds or EDTA (at Aβ:test compound weight ratios of 1:0.001, 1:0.01, 1:0.1 and 1:1) was determined."}
{"compound": "O=C(O)CN(CCN(CC(=O)O)CC(=O)O)CC(=O)O", "note": "[EDTA]", "values": [{"measurement": "inhibition of Aβ 1-42 fibril binding to Congo red, in words", "value": "no significant inhibition"}, {"measurement": "% inhibition of Aβ (Congo red binding)", "setting": "Aβ:test compound wt/wt ratio 1:0.001", "value": "0.0 ± 0.62", "unit": "%"}, {"measurement": "% inhibition of Aβ (Congo red binding)", "setting": "Aβ:test compound wt/wt ratio 1:0.01", "value": "0.0 +/− 0.49%"}, {"measurement": "% inhibition of Aβ (Congo red binding)", "setting": "Aβ:test compound wt/wt ratio 1:0.1", "value": "0.0 ± 0.76", "unit": "%"}, {"measurement": "% inhibition of Aβ (Congo red binding)", "setting": "Aβ:test compound wt/wt ratio 1:1", "value": "3.9 +/− 1.37%"}]}
